Assay results from patent US20200288721A1, “PESTICIDAL COMPOSITION COMPRISING AN OXIME CARBAMATE AND USE THEREOF” (priority 2017, published 2020).

Assay: Stability Test: storage of SL formulations in sealed bottles at 54° C. for 14 days
Format: physicochemical
Details: acid at 1% (Table 1) or 1-3% (Table 3) in 24% oxamyl SL
Protocol: (§1) Samples of the compositions summarised in Table 1 above were packaged in commercially available 500 ml fluorinated plastic bottles and the bottles sealed. The bottles were stored at 54° C. for 14 days. Thereafter, the bottles were cooled to room temperature and their appearance assessed. The concentration of the active ingredient, oxamyl, in each bottle was measured.
as §1, with “Table 3” for “Table 1”

## O=P(O)(O)O [phosphoric acid]
  stabilisation / chemical degradation of the oxamyl active ingredient (in words): significantly reduced the chemical degradation

## O=C(O)CC(O)(CC(=O)O)C(=O)O [citric acid]
  stabilisation / chemical degradation of the oxamyl active ingredient (in words): significantly reduced the chemical degradation

## CC(=O)O [Acetic acid]
  stabilisation / chemical degradation of the oxamyl active ingredient (in words): significantly reduced the chemical degradation

## OB(O)O [boric acid]
  stabilisation / chemical degradation of the oxamyl active ingredient (in words): not effective in stabilising the oxamyl active ingredient

## Cl [hydrochloric acid]
  stabilisation / chemical degradation of the oxamyl active ingredient (in words): significantly reduced the chemical degradation
